In one test the test system is LC3-II. The test can be described thus: Western blot and densitometry of LC3-I/II (autophagy). The test is classed as cell-based, human. Particulars: for densitometry WB, relative to NT = 1: single blot; for LC3-II levels compared to the control: agent alone. The source says:
Established protocols were used to prepare cell lysates and perform immunoblot analysis. Primary antibodies used include: rabbit LC3 (Cat. #: MBPM036; 1:2,000) from Abacus (Brisbane, Australia) and mouse β-actin (Cat. #: A1978, 1:10,000) from Sigma-Aldrich. The following secondary antibodies were utilized: horseradish peroxidase (HRP)-conjugated anti-rabbit (Cat. #: A6154, […]) and anti-mouse (Cat. #: A4416, 1:10,000) antibodies from Sigma-Aldrich. To ensure equal loading of proteins, membranes were probed for β-actin.

Test [1] is described as follows: Ascorbate oxidation assay (redox activity of iron complexes).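 As to %Fe 30min (ascorbate oxidation, Fe 100%), průměr: IBE 3 means excess free chelator over iron.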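 As to %Fe 30min (ascorbate oxidation, Fe 100%): IBE 3 means excess free chelator over iron.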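 As to %Fe 30min: ascorbate oxidation as % of the Fe control (Fe 100%): IBE 0.1 means iron-binding equivalents with iron in excess over chelator.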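 As to Change of absorbance, odečet 0 (time 0 subtracted), čas 10, průměr: IBE 3 means excess free chelator over 10 µM FeCl3.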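 As to Change of absorbance, odečet 0 (time 0 subtracted), čas 10: IBE 3 means excess free chelator over 10 µM FeCl3.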 Particulars: for %Fe 30min: ascorbate oxidation as % of the Fe control (Fe 100%): IBE 0.1, 30 min. The test is classed as biochemical. Here is the method:
The ascorbate oxidation assay was used to assess the redox activity of the iron complexes of the chelators using an established protocol. In brief, 100 μM ascorbic acid was prepared immediately prior to the experiment and incubated either alone or in the presence of 10 μM FeCl3 in a 50-fold molar excess (500 μM) of citrate and the chelators. Chelators were assayed at iron-binding equivalents (IBE) of 0.1 (excess of iron), 1 (fully coordinated iron—chelator complexes) and 3 (excess of free chelator). […] The decrease of absorbance between the two time points was calculated and expressed as a percentage of control without the chelator.

Where [2] appears, read: Supplementary Fig 2, Baf+, 10nM.
The mark [3] stands for this setting: Supplementary Fig 2, Baf+, 5uM (5M [sic] for Bp4eT).
The mark [4] stands for this setting: 72 h/37°C, MCF-7, Bp4eT 10 and 100 nM, Dp44mT 100 nM, Baf A1 100 nM.
Where [5] appears, read: sheet IBE 1, time 10, replicates.
The mark [6] stands for this setting: sheet IBE 1, time 20, replicates.
The mark [7] stands for this setting: sheet IBE 1, time 30, replicates.
Where [8] appears, read: Supplementary Fig 2, Baf+ NT (Baf alone).

The structures appear in SMILES notation. “And” between values parts separate entries of the source, which are not always exact repeats. Equal values may be shown once.

In the case of `CN(C)C(=S)NN=C(c1ccccn1)c1ccccn1` [Dp44mT, di-2-pyridylketone 4,4-dimethyl-3-thiosemicarbazone, reference compound], the “LC3-II with Baf A1 relative to Baf A1 and control” value in the test with LC3-II (24 h/37°C, MCF-7, agent 5 μM, Baf A1 100 nM) is reported as “significant (p < 0.05) increase”. Also, the “LC3II expression with Baf A1 relative to Baf A1 and control” value with LC3-II (24 h/37°C, MCF-7, agent 10 and 100 nM, Baf A1 100 nM) is recorded as “did not lead to a significant (p > 0.05) increase”. Moreover, in the test with LC3-II (72 h/37°C, MCF-7, Baf A1 100 nM, Bp4eT 10 and 100 nM, Dp44mT 100 nM), the “LC3-II levels upon co-incubation with Baf A1, compared to Baf A1 alone” value is on record as “significant (p < 0.001–0.05) suppression”. Moreover, the “densitometry WB, relative to NT = 1, Average” value with LC3-II (Fig 7E, 100nM) was found to be 4.573; with LC3-II (Supplementary Fig 2, 10nM), 1.013; in the test with LC3-II (Supplementary Fig 2, 100nM), 0.7153; with LC3-II (Supplementary Fig 2, 5uM (5M [sic] for Bp4eT)), 2.9502; in the test with LC3-II (setting [2]), 97.312; in the test on LC3-II (Supplementary Fig 2, Baf+, 100nM) it was 73.568. In addition, the “densitometry WB, relative to NT = 1, Average” value in the test with LC3-II (setting [3]) stood at 249.127. Also, the “densitometry WB, relative to NT = 1” value with LC3-II (setting [2]) is 76.4364 and 79.3437 and 136.156; with LC3-II (setting [3]), 275.571 and 204.438 and 267.371. For the same compound, the “LC3-II levels compared to the control” value in the test with LC3-II (setting [4]) was “slight, but significant (p < 0.05) increase”.
Consider `O=C(O)CN(CCN(CC(=O)O)CC(=O)O)CC(=O)O` [EDTA, reference compound], for which the “Ascorbate oxidation, % of the control” value in test [1] (IBE 0.1) turned out to be 161%; in test [1] (IBE 1), 417%; in test [1] (IBE 3) it was 427%. For the same compound, the “%Fe 30min: ascorbate oxidation as % of the Fe control (Fe 100%)” value in test [1] (mean (průměr)) was 160.9%; in test [1] (single wells), 159.4% and 155.2% and 146.4% and 180.8% and 176.8% and 168.8%. Also, the “Change of absorbance after subtraction of time 0 (odečet 0)” value in test [1] (IBE 0.1, time 10, mean (průměr)) is -0.05129; in test [1] (IBE 0.1, time 20, mean (průměr)), -0.1014; in test [1] (IBE 0.1, time 30, mean (průměr)), -0.1524. Moreover, the “Absorbance (ascorbate, λ = 265 nm)” value in test [1] (IBE 0.1, čas 0 (time 0), mean (průměr)) is 0.8103; in test [1] (IBE 0.1, čas 0 (time 0), single wells), 0.8054 and 0.8016 and 0.8149 and 0.8186 and 0.808 and 0.8024; in test [1] (IBE 0.1, čas 10 (time 10), mean (průměr)), 0.759; in test [1] (IBE 0.1, čas 10 (time 10), single wells), 0.7602 and 0.7682 and 0.7617 and 0.7478 and 0.7502 and 0.7523; in test [1] (IBE 0.1, čas 20 (time 20), mean (průměr)), 0.7088; in test [1] (IBE 0.1, čas 20 (time 20), single wells), 0.708 and 0.7209 and 0.713 and 0.6947 and 0.6986 and 0.7025. The “Absorbance (ascorbate, λ = 265 nm)” value in test [1] (IBE 0.1, čas 30 (time 30), mean (průměr)) was 0.6579; in test [1] (IBE 0.1, čas 30 (time 30), single wells) it was 0.6595 and 0.6673 and 0.6654 and 0.6401 and 0.6465 and 0.65. Further, the “%Fe 30min (ascorbate oxidation, Fe = 100%), průměr (mean)” value in test [1] (sheet IBE 1, 30min, Fe 100%, mean) came out at 416.7%. Besides, the “%Fe 30min (ascorbate oxidation, Fe = 100%), single replicates” value in test [1] (sheet IBE 1, 30min, Fe 100%, replicates) is 441% and 427.1% and 415.6% and 401.4% and 393.2% and 387.9%. Moreover, in test [1] (sheet IBE 1, time 0, mean of 9 readings), the “raw reading at čas 0 (time 0), průměr (mean)” value was 0.6818. Moreover, the “raw reading at čas 0 (time 0), single replicates” value in test [1] (sheet IBE 1, time 0, replicates of 2014-03-24 (two runs) and 2014-03-25) was 0.698 and 0.6881 and 0.6774 and 0.6781 and 0.6723 and 0.6948. For the same compound, the “odečet 0 (reading minus time 0 reading) at čas 10, průměr (mean)” value in test [1] (sheet IBE 1, time 10, mean) was -0.1456. The “raw reading at čas 10 (time 10), průměr (mean)” value in test [1] (sheet IBE 1, time 10, mean of 9 readings) was determined as 0.5362. For the same compound, the “odečet 0 (reading minus time 0 reading) at čas 10, single replicates” value in test [1] (setting [5]) was -0.1492 and -0.1466 and -0.1396 and -0.1522 and -0.1449 and -0.1427. Further, the “raw reading at čas 10 (time 10), single replicates” value in test [1] (setting [5]) is 0.5282 and 0.5314 and 0.5326 and 0.5426 and 0.5531 and 0.5454. The “odečet 0 (reading minus time 0 reading) at čas 20, průměr (mean)” value in test [1] (sheet IBE 1, time 20, mean) is -0.2713. Also, the “raw reading at čas 20 (time 20), průměr (mean)” value in test [1] (sheet IBE 1, time 20, mean of 9 readings) is listed as 0.4105. Also, in test [1] (setting [6]), the “odečet 0 (reading minus time 0 reading) at čas 20, single replicates” value is -0.2803 and -0.2685 and -0.2607 and -0.2802 and -0.2739 and -0.2684. Further, the “raw reading at čas 20 (time 20), single replicates” value in test [1] (setting [6]) is 0.3971 and 0.4095 and 0.4115 and 0.4146 and 0.424 and 0.4197. Also, the “odečet 0 (reading minus time 0 reading) at čas 30, průměr (mean)” value in test [1] (sheet IBE 1, time 30, mean) is reported as -0.3705. Further, the “raw reading at čas 30 (time 30), průměr (mean)” value in test [1] (sheet IBE 1, time 30, mean of 9 readings) came out at 0.3114. Also, the “odečet 0 (reading minus time 0 reading) at čas 30, single replicates” value in test [1] (setting [7]) was -0.381 and -0.369 and -0.359 and -0.3788 and -0.3711 and -0.366. In addition, in test [1] (setting [7]), the “raw reading at čas 30 (time 30), single replicates” value is 0.2963 and 0.3091 and 0.3132 and 0.316 and 0.3269 and 0.322. Also, in test [1] (sheet IBE 3, 30min, Fe alone = 100%, mean (průměr) of the 9 replicates), the “%Fe 30min (ascorbate oxidation, Fe 100%), průměr” value amounted to 426.7%. Besides, in test [1] (sheet IBE 3, 30min, Fe alone = 100%, single replicates), the “%Fe 30min (ascorbate oxidation, Fe 100%)” value is 442% and 427.3% and 421.9% and 434.5% and 414.3% and 409.1%. In addition, the “Change of absorbance, odečet 0 (time 0 subtracted), čas 10, průměr” value in test [1] (sheet IBE 3, time 10 minus time 0, mean (průměr)) is on record as -0.1585. Besides, the “Change of absorbance, odečet 0 (time 0 subtracted), čas 10” value in test [1] (sheet IBE 3, time 10 minus time 0, single replicates) was -0.1642 and -0.1578 and -0.1558 and -0.1617 and -0.1557 and -0.1533. In addition, the “Change of absorbance, odečet 0 (time 0 subtracted), čas 20, průměr” value in test [1] (sheet IBE 3, time 20 minus time 0, mean (průměr)) is recorded as -0.2896. For the same compound, the “Change of absorbance, odečet 0 (time 0 subtracted), čas 20” value in test [1] (sheet IBE 3, time 20 minus time 0, single replicates) is -0.3027 and -0.2894 and -0.2865 and -0.2919 and -0.2818 and -0.2751. Further, the “Change of absorbance, odečet 0 (time 0 subtracted), čas 30, průměr” value in test [1] (sheet IBE 3, time 30 minus time 0, mean (průměr)) is recorded as -0.3943. Besides, the “Change of absorbance, odečet 0 (time 0 subtracted), čas 30” value in test [1] (sheet IBE 3, time 30 minus time 0, single replicates) was -0.4103 and -0.3966 and -0.3916 and -0.3977 and -0.3792 and -0.3744.
`CO/C1=C\C(C)=C\[C@@H](C)[C@@H](O)[C@@H](C)C/C(C)=C/C=C/[C@H](OC)[C@@H]([C@@H](C)[C@@H](O)[C@H](C)[C@@]2(O)C[C@@H](O)[C@H](C)[C@@H](C(C)C)O2)OC1=O` [Baf]: in the test on LC3-II (Fig 7E, Baf alone), the “densitometry WB, relative to NT = 1, Average” value came to 452.435; the “densitometry WB, relative to NT = 1” value is 493.767 and 401.641 and 461.896. In the test on LC3-II (setting [8]), the “densitometry WB, relative to NT = 1, Average” value worked out at 120.681; the “densitometry WB, relative to NT = 1” value was 125.194 and 89.4619 and 147.387.
With `CO/C1=C\C(C)=C\[C@@H](C)[C@@H](O)[C@@H](C)C/C(C)=C/C=C/[C@H](OC)[C@@H]([C@@H](C)[C@@H](O)[C@H](C)[C@@]2(O)C[C@@H](O)[C@H](C)[C@@H](C(C)C)O2)OC1=O` [Baf A1, Bafilomycin A1, reference compound], the “LC3-II levels compared to the control” value in the test with LC3-II (setting [4]) is “marked and significant (p < 0.001) increase”.

The values are drawn from publication PMC4604124, “In Vitro Characterization of the Pharmacological Properties of the Anti-Cancer Chelator, Bp4eT, and Its Phase I Metabolites” (PLoS ONE, 2015).
